Source: ChEMBL document CHEMBL1139874, “New diphenylacetylenes as probes for positron emission tomographic imaging of amyloid plaques” (J Med Chem, 2007)

Tests used:
[1] = biological target: Amyloid-beta precursor protein (Homo sapiens, UniProt P05067); assay: Displacement of [125I]IMPY from human beta amyloid plaque in brain homogenates; format: tissue-based
Kidney [2] = assay: Biodistribution in ICR mouse kidney at 5 to 10 uCi, iv after 30 mins; format: ADME, organism-based; conditions: in vivo, 0.5 h
Zone of skin [3] = assay: Biodistribution in ICR mouse skin at 5 to 10 uCi, iv after 2 hrs; format: ADME, organism-based; conditions: in vivo
Heart [4] = assay: Biodistribution in ICR mouse heart at 5 to 10 uCi, iv after 2 mins; format: ADME, organism-based; conditions: in vivo
Spleen [5] = assay: Biodistribution in ICR mouse spleen at 5 to 10 uCi, iv after 2 mins; format: ADME, organism-based; conditions: in vivo
Kidney [6] = assay: Biodistribution in ICR mouse kidney at 5 to 10 uCi, iv after 1 hr; format: ADME, organism-based; conditions: in vivo
Blood [7] = assay: Biodistribution in ICR mouse blood at 5 to 10 uCi, iv after 2 hrs; format: ADME, organism-based; conditions: in vivo
[8] = Partition coefficient, log P at pH 7.4; format: physicochemical; conditions: octanol/water
Muscle tissue [9] = assay: Biodistribution in ICR mouse muscle at 5 to 10 uCi, iv after 2 hrs; format: ADME, organism-based; conditions: in vivo
Zone of skin [10] = assay: Biodistribution in ICR mouse skin at 5 to 10 uCi, iv after 30 mins; format: ADME, organism-based; conditions: in vivo, 0.5 h
Brain [11] = assay: Biodistribution in ICR mouse brain at 5 to 10 uCi, iv after 2 hrs; format: ADME, organism-based; conditions: in vivo
Liver [12] = assay: Biodistribution in ICR mouse liver at 5 to 10 uCi, iv after 30 mins; format: ADME, organism-based; conditions: in vivo, 0.5 h
Muscle tissue [13] = assay: Biodistribution in ICR mouse muscle at 5 to 10 uCi, iv after 2 mins; format: ADME, organism-based; conditions: in vivo
Spleen [14] = assay: Biodistribution in ICR mouse spleen at 5 to 10 uCi, iv after 30 mins; format: ADME, organism-based; conditions: in vivo, 0.5 h
Blood [15] = assay: Biodistribution in ICR mouse blood at 5 to 10 uCi, iv after 2 mins; format: ADME, organism-based; conditions: in vivo
Heart [16] = assay: Biodistribution in ICR mouse heart at 5 to 10 uCi, iv after 2 hrs; format: ADME, organism-based; conditions: in vivo
Spleen [17] = assay: Biodistribution in ICR mouse spleen at 5 to 10 uCi, iv after 2 hrs; format: ADME, organism-based; conditions: in vivo
Kidney [18] = assay: Biodistribution in ICR mouse kidney at 5 to 10 uCi, iv after 2 hrs; format: ADME, organism-based; conditions: in vivo
Spleen [19] = assay: Biodistribution in ICR mouse spleen at 5 to 10 uCi, iv after 1 hr; format: ADME, organism-based; conditions: in vivo
Lung [20] = assay: Biodistribution in ICR mouse lung at 5 to 10 uCi, iv after 30 mins; format: ADME, organism-based; conditions: in vivo, 0.5 h
Lung [21] = assay: Biodistribution in ICR mouse lung at 5 to 10 uCi, iv after 2 hrs; format: ADME, organism-based; conditions: in vivo
Brain [22] = assay: Biodistribution in ICR mouse brain at 5 to 10 uCi, iv after 1 hr; format: ADME, organism-based; conditions: in vivo
Bone [23] = assay: Biodistribution in ICR mouse bone at 5 to 10 uCi, iv after 2 mins; format: ADME, organism-based, Bone element; conditions: in vivo
Lung [24] = assay: Biodistribution in ICR mouse lung at 5 to 10 uCi, iv after 2 mins; format: ADME, organism-based; conditions: in vivo
Brain [25] = assay: Biodistribution in ICR mouse brain at 5 to 10 uCi, iv after 30 mins; format: ADME, organism-based; conditions: in vivo, 0.5 h
Bone [26] = assay: Biodistribution in ICR mouse bone at 5 to 10 uCi, iv after 1 hr; format: ADME, organism-based, Bone element; conditions: in vivo
Muscle tissue [27] = assay: Biodistribution in ICR mouse muscle at 5 to 10 uCi, iv after 30 mins; format: ADME, organism-based; conditions: in vivo, 0.5 h
Kidney [28] = assay: Biodistribution in ICR mouse kidney at 5 to 10 uCi, iv after 2 mins; format: ADME, organism-based; conditions: in vivo
Zone of skin [29] = assay: Biodistribution in ICR mouse skin at 5 to 10 uCi, iv after 2 mins; format: ADME, organism-based; conditions: in vivo
Liver [30] = assay: Biodistribution in ICR mouse liver at 5 to 10 uCi, iv after 1 hr; format: ADME, organism-based; conditions: in vivo
Blood [31] = assay: Biodistribution in ICR mouse blood at 5 to 10 uCi, iv after 1 hr; format: ADME, organism-based; conditions: in vivo
Bone [32] = assay: Biodistribution in ICR mouse bone at 5 to 10 uCi, iv after 30 mins; format: ADME, organism-based, Bone element; conditions: in vivo, 0.5 h
Heart [33] = assay: Biodistribution in ICR mouse heart at 5 to 10 uCi, iv after 30 mins; format: ADME, organism-based; conditions: in vivo, 0.5 h
Zone of skin [34] = assay: Biodistribution in ICR mouse skin at 5 to 10 uCi, iv after 1 hr; format: ADME, organism-based; conditions: in vivo
Heart [35] = assay: Biodistribution in ICR mouse heart at 5 to 10 uCi, iv after 1 hr; format: ADME, organism-based; conditions: in vivo
Lung [36] = assay: Biodistribution in ICR mouse lung at 5 to 10 uCi, iv after 1 hr; format: ADME, organism-based; conditions: in vivo
Brain [37] = assay: Biodistribution in ICR mouse brain at 5 to 10 uCi, iv after 2 mins; format: ADME, organism-based; conditions: in vivo
Liver [38] = assay: Biodistribution in ICR mouse liver at 5 to 10 uCi, iv after 2 hrs; format: ADME, organism-based; conditions: in vivo
Bone [39] = assay: Biodistribution in ICR mouse bone at 5 to 10 uCi, iv after 2 hrs; format: ADME, organism-based, Bone element; conditions: in vivo
Muscle tissue [40] = assay: Biodistribution in ICR mouse muscle at 5 to 10 uCi, iv after 1 hr; format: ADME, organism-based; conditions: in vivo
Liver [41] = assay: Biodistribution in ICR mouse liver at 5 to 10 uCi, iv after 2 mins; format: ADME, organism-based; conditions: in vivo
Blood [42] = assay: Biodistribution in ICR mouse blood at 5 to 10 uCi, iv after 30 mins; format: ADME, organism-based; conditions: in vivo, 0.5 h

Sequence of Amyloid-beta precursor protein (P05067 whole entry): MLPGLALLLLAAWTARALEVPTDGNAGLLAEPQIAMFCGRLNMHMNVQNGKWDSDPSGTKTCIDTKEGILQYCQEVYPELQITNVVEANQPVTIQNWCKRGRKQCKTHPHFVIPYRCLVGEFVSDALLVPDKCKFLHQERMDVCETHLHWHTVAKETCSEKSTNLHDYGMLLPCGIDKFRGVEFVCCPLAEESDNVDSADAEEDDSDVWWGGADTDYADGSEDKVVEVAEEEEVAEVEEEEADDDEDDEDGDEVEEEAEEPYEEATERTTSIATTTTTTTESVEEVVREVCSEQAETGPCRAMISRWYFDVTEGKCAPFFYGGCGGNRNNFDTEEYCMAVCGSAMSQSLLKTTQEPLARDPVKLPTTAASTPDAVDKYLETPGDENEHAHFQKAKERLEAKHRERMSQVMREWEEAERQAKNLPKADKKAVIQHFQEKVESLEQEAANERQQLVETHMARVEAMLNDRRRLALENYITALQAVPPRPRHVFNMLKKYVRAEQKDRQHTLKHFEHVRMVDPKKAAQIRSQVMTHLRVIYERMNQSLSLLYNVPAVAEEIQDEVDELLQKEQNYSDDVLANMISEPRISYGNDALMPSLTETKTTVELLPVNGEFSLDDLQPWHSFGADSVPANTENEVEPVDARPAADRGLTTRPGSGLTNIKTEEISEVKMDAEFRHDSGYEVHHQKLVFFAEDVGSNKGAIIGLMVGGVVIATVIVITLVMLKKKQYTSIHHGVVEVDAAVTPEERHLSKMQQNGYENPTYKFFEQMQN

COc1ccc(C#Cc2ccc(N)cc2)cc1
Ki [1]: 2.9 nM

CN(C)c1ccc(C#Cc2ccc(OCCOCCOCCF)cc2)cc1
Ki [1]: 2.9 nM

Nc1ccc(C#Cc2ccc(OCCOCCOCCF)cc2)cc1
Ki [1]: 21.5 nM

CN(C)c1ccc(C#Cc2ccc(OCCOCCOCC[18F])cc2)cc1
Drug uptake (Kidney [2]): 2.68 % ID/g
Drug uptake (Zone of skin [3]): 0.68 % ID/g
Drug uptake (Heart [4]): 9.97 % ID/g
Drug uptake (Spleen [5]): 4.61 % ID/g
Drug uptake (Kidney [6]): 2.53 % ID/g
Drug uptake (Blood [7]): 2.35 % ID/g
logD [8]: 3.18
Drug uptake (Muscle tissue [9]): 0.42 % ID/g
Drug uptake (Zone of skin [10]): 1.41 % ID/g
Drug uptake (Brain [11]): 0.42 % ID/g
Drug uptake (Liver [12]): 13.8 % ID/g
Drug uptake (Muscle tissue [13]): 0.79 % ID/g
Drug uptake (Spleen [14]): 1.39 % ID/g
Drug uptake (Blood [15]): 5.72 % ID/g
Drug uptake (Heart [16]): 0.84 % ID/g
Drug uptake (Spleen [17]): 1.17 % ID/g
Drug uptake (Kidney [18]): 2.02 % ID/g
Drug uptake (Spleen [19]): 1.13 % ID/g
Drug uptake (Lung [20]): 2.26 % ID/g
Drug uptake (Lung [21]): 1.47 % ID/g
Drug uptake (Brain [22]): 0.77 % ID/g
Drug uptake (Bone [23]): 1.51 % ID/g
Drug uptake (Lung [24]): 8.38 % ID/g
Drug uptake (Brain [25]): 1.57 % ID/g
Drug uptake (Bone [26]): 0.56 % ID/g
Drug uptake (Muscle tissue [27]): 0.67 % ID/g
Drug uptake (Kidney [28]): 12.4 % ID/g
Drug uptake (Zone of skin [29]): 0.68 % ID/g
Drug uptake (Liver [30]): 8.13 % ID/g
Drug uptake (Blood [31]): 2.51 % ID/g
Drug uptake (Bone [32]): 0.64 % ID/g
Drug uptake (Heart [33]): 1.49 % ID/g
Drug uptake (Zone of skin [34]): 1.28 % ID/g
Drug uptake (Heart [35]): 1.04 % ID/g
Drug uptake (Lung [36]): 1.26 % ID/g
Drug uptake (Brain [37]): 6.78 % ID/g
Drug uptake (Liver [38]): 6.58 % ID/g
Drug uptake (Bone [39]): 0.7 % ID/g
Drug uptake (Muscle tissue [40]): 0.51 % ID/g
Drug uptake (Liver [41]): 23.2 % ID/g
Drug uptake (Blood [42]): 2.97 % ID/g

CNc1ccc(C#Cc2ccc(OCCOCCOCCF)cc2)cc1
Ki [1]: 1.9 nM

CNc1ccc(C#Cc2ccc(OCCOCCF)cc2)cc1
Ki [1]: 1.2 nM

CN(C)c1ccc(C#Cc2ccc(OCCOCCF)cc2)cc1
Ki [1]: 5 nM

CNc1ccc(C#Cc2ccc(OCCOCCO)cc2)cc1
Ki [1]: 3.1 nM

Nc1ccc(C#Cc2ccc(N)cc2)cc1
Ki [1]: 76 nM

CNc1ccc(C#Cc2ccc(OCCOCCOCCO)cc2)cc1
Ki [1]: 4.5 nM

Oc1ccc(C#Cc2ccc(OCCOCCOCCF)cc2)cc1
Ki [1]: 16.5 nM
